Patent publication US20080051387A1, “TETRAHYDROPYRIDO[3,4-D]PYRIMIDINES AND RELATED ANALOGUES” (priority 2006, published 2008)

Molecular target: T1, chimeric human H3 receptor (Homo sapiens, UniProt Q9Y5N1)
T1 construct: rat Galpha-i2 (Gnai2, rat); made in house; host or cells: Sf9 insect cells (baculovirus); P2 membranes
Experiment: Chimeric human H3 receptor screening GTP binding assay (inhibition of histamine-stimulated GTP-gamma35S binding, Example 8)
Format: biochemical
Conditions: 1 h; assay described in Example 8; symbol "!" in column headed Ki; read-out: Ki ("!": percent inhibition of agonist-induced GTP-gammaS binding to H3)
Method in brief: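 Compound tested at 4 μM against 1 μM histamine stimulation; 125 pM GTP-gamma35S binding measured by filtration and scintillation after 60 min at room temperature. Membranes from Sf9 cells expressing chimeric human H3 plus G-protein subunits, in Tris pH 7.4/NaCl/MgCl2/GDP buffer; values are % inhibition after nonspecific subtraction.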

T1 sequence (Q9Y5N1 with tags, fused parts or gaps): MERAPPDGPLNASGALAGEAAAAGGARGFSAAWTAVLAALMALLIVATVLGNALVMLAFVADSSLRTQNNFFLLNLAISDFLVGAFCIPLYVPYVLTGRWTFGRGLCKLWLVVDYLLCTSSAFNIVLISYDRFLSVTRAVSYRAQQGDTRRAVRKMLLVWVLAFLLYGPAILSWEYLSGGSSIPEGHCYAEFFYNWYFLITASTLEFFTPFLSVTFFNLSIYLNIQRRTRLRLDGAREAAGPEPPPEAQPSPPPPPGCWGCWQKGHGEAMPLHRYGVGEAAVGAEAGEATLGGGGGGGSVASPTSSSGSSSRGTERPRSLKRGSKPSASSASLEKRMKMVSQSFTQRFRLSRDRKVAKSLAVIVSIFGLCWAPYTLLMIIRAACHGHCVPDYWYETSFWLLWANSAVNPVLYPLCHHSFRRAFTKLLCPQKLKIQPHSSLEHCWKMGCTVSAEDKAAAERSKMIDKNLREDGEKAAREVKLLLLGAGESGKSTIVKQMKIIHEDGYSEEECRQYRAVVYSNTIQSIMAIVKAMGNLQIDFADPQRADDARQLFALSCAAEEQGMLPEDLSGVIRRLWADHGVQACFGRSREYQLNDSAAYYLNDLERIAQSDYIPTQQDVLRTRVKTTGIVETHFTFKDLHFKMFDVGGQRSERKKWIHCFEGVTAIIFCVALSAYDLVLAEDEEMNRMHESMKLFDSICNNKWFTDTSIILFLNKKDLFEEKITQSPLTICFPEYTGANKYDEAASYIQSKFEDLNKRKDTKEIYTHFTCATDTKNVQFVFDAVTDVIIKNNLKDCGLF

Inhibition at 4 µM, ≥ 90%:
CCOc1ccccc1/C=C/C(=O)N1CCc2cnc(N3CCN(C4CCC4)CC3)nc2CC1 [Compound 569, 2-(4-cyclobutylpiperazin-1-yl)-7-[(2E)-3-(2-ethoxyphenyl)prop-2-enoyl]-6,7,8,9-tetrahydro-5H-pyrimido[4,5-d]azepine]
COc1cc(Cl)c(C(=O)N2CCc3cnc(N4CCN(C5CCC5)CC4)nc3CC2)cc1OC [Compound 428, 7-(2-chloro-4,5-dimethoxybenzoyl)-2-(4-cyclobutylpiperazin-1-yl)-6,7,8,9-tetrahydro-5H-pyrimido[4,5-d]azepine]
Cn1nc(C(F)(F)F)cc1-c1ccc(C(=O)N2CCc3cnc(N4CCN(C5CCC5)CC4)nc3CC2)s1 [Compound 460, 2-(4-cyclobutylpiperazin-1-yl)-7-({5-[1-methyl-3-(trifluoromethyl)-1H-pyrazol-5-yl]-2-thienyl}carbonyl)-6,7,8,9-tetrahydro-5H-pyrimido[4,5-d]azepine]
O=C(c1ccc(F)c(Br)c1)N1CCc2cnc(N3CCN(C4CCC4)CC3)nc2CC1 [Compound 401, 7-(3-bromo-4-fluorobenzoyl)-2-(4-cyclobutylpiperazin-1-yl)-6,7,8,9-tetrahydro-5H-pyrimido[4,5-d]azepine]
O=C(Cc1ccc(-c2ccccc2)cc1)N1CCc2cnc(N3CCN(C4CCC4)CC3)nc2CC1 [Compound 518, 7-(biphenyl-4-ylacetyl)-2-(4-cyclobutylpiperazin-1-yl)-6,7,8,9-tetrahydro-5H-pyrimido[4,5-d]azepine]
Cc1cc(C)c(C(=O)N2CCc3cnc(N4CCN(C5CCC5)CC4)nc3CC2)c(C)c1 [Compound 405, 2-(4-cyclobutylpiperazin-1-yl)-7-(mesitylcarbonyl)-6,7,8,9-tetrahydro-5H-pyrimido[4,5-d]azepine]
O=C(c1ccncc1)N1CCc2cnc(N3CCN(C4CCC4)CC3)nc2CC1 [Compound 487, 2-(4-cyclobutylpiperazin-1-yl)-7-isonicotinoyl-6,7,8,9-tetrahydro-5H-pyrimido[4,5-d]azepine]
Cc1ccc(/C=C/C(=O)N2CCc3cnc(N4CCN(C5CCC5)CC4)nc3CC2)cc1 [Compound 557, 2-(4-cyclobutylpiperazin-1-yl)-7-[(2E)-3-(4-methylphenyl)prop-2-enoyl]-6,7,8,9-tetrahydro-5H-pyrimido[4,5-d]azepine]
O=C(c1ccc(Cl)s1)N1CCc2cnc(N3CCN(C4CCC4)CC3)nc2CC1 [Compound 453, 7-[(5-chloro-2-thienyl)carbonyl]-2-(4-cyclobutylpiperazin-1-yl)-6,7,8,9-tetrahydro-5H-pyrimido[4,5-d]azepine]

Same assay, conditions: 1 h; assay of Example 8; symbol "!" in column headed Ki; read-out: percent inhibition of agonist-induced GTP-gammaS binding to H3

Inhibition at 4 µM, ≥ 90%:
COc1cccc(CC(=O)N2CCc3cnc(N4CCN(C5CCC5)CC4)nc3CC2)c1 [Compound 273, 2-(4-cyclobutylpiperazin-1-yl)-7-[(3-methoxyphenyl)acetyl]-6,7,8,9-tetrahydro-5H-pyrimido[4,5-d]azepine]
COc1ccccc1C(=O)N1CCc2cnc(N3CCN(C4CCC4)CC3)nc2CC1 [Compound 192, 2-(4-cyclobutylpiperazin-1-yl)-7-(2-methoxybenzoyl)-6,7,8,9-tetrahydro-5H-pyrimido[4,5-d]azepine]
Cc1ccc(OCC(=O)N2CCc3cnc(N4CCN(C5CCC5)CC4)nc3CC2)c(C)c1 [Compound 333, 2-(4-cyclobutylpiperazin-1-yl)-7-[(2,4-dimethylphenoxy)acetyl]-6,7,8,9-tetrahydro-5H-pyrimido[4,5-d]azepine]
O=C(c1ccc(-c2ccccc2)cc1)N1CCc2cnc(N3CCN(C4CCC4)CC3)nc2CC1 [Compound 365]
O=C(c1ccc(F)cc1)N1CCc2cnc(N3CCN(C4CCC4)CC3)nc2CC1 [Compound 194, 2-(4-cyclobutylpiperazin-1-yl)-7-(4-fluorobenzoyl)-6,7,8,9-tetrahydro-5H-pyrimido[4,5-d]azepine]
c1nc(N2CCN(C3CCC3)CC2)nc2c1CCN(CC1CCOC1)CC2 (stereo not shown) [Compound 256, 2-(4-cyclobutylpiperazin-1-yl)-7-(tetrahydrofuran-3-ylmethyl)-6,7,8,9-tetrahydro-5H-pyrimido[4,5-d]azepine]
Fc1ccc(CN2CCc3cnc(N4CCN(C5CCC5)CC4)nc3CC2)cc1 [Compound 232, 2-(4-cyclobutylpiperazin-1-yl)-7-(4-fluorobenzyl)-6,7,8,9-tetrahydro-5H-pyrimido[4,5-d]azepine]
CC(Oc1ccc(Cl)cc1)C(=O)N1CCc2cnc(N3CCN(C4CCC4)CC3)nc2CC1 (stereo not shown) [Compound 345, 7-[2-(4-chlorophenoxy)propanoyl]-2-(4-cyclobutylpiperazin-1-yl)-6,7,8,9-tetrahydro-5H-pyrimido[4,5-d]azepine]
O=C(C(c1ccccc1)c1ccccc1)N1CCc2cnc(N3CCN(C4CCC4)CC3)nc2CC1 [Compound 354, 2-(4-cyclobutylpiperazin-1-yl)-7-(diphenylacetyl)-6,7,8,9-tetrahydro-5H-pyrimido[4,5-d]azepine]
c1cc(N2CCCC2)ncc1CN1CCc2cnc(N3CCN(C4CCC4)CC3)nc2CC1 [Compound 263, 2-(4-cyclobutylpiperazin-1-yl)-7-[(6-pyrrolidin-1-ylpyridin-3-yl)methyl]-6,7,8,9-tetrahydro-5H-pyrimido[4,5-d]azepine]
CC(C(=O)N1CCc2cnc(N3CCN(C4CCC4)CC3)nc2CC1)(c1ccccc1)c1ccccc1 [Compound 357, 2-(4-cyclobutylpiperazin-1-yl)-7-(2,2-diphenylpropanoyl)-6,7,8,9-tetrahydro-5H-pyrimido[4,5-d]azepine]
Cc1ccccc1OC(C)C(=O)N1CCc2cnc(N3CCN(C4CCC4)CC3)nc2CC1 (stereo not shown) [Compound 346, 2-(4-cyclobutylpiperazin-1-yl)-7-[2-(2-methylphenoxy)propanoyl]-6,7,8,9-tetrahydro-5H-pyrimido[4,5-d]azepine]

Same assay, conditions: symbol ! in Ki; test compound 4 μM, 1 μM histamine; read-out: percent inhibition of agonist-induced GTP-gammaS binding to H3

Inhibition at 4 µM, ≥ 90%:
CC(C)CN1CCc2ncnc(N3CCN(C4CCC4)CC3)c2CC1 [Compound 166, 4-(4-cyclobutylpiperazin-1-yl)-7-isobutyl-6,7,8,9-tetrahydro-5H-pyrimido[4,5-d]azepine]
COc1ccc(OC)c(CN2CCc3nc(N4CCN(C5CCC5)CC4)ncc3C2)c1 [Compound 641, 2-(4-cyclobutylpiperazin-1-yl)-6-(2,5-dimethoxybenzyl)-5,6,7,8-tetrahydropyrido[4,3-d]pyrimidine]
CC(C)C(C)N1CCc2c(ncnc2N2CCN(C3CCC3)CC2)C1 (stereo not shown) [Compound 121, 4-(4-cyclobutylpiperazin-1-yl)-7-(1,2-dimethylpropyl)-5,6,7,8-tetrahydropyrido[3,4-d]pyrimidine]
CCCCCCN1CCc2ncnc(N3CCN(C4CCC4)CC3)c2CC1 [Compound 165, 4-(4-cyclobutylpiperazin-1-yl)-7-hexyl-6,7,8,9-tetrahydro-5H-pyrimido[4,5-d]azepine]
O=C(CCC1CCCC1)N1CCc2c(ncnc2N2CCN(C3CCC3)CC2)C1 [Compound 49, 4-(4-cyclobutylpiperazin-1-yl)-7-(3-cyclopentylpropanoyl)-5,6,7,8-tetrahydropyrido[3,4-d]pyrimidine]
CCC(C)N1CCc2c(ncnc2N2CCN(C3CCC3)CC2)C1 (stereo not shown) [Compound 117, 7-sec-butyl-4-(4-cyclobutylpiperazin-1-yl)-5,6,7,8-tetrahydropyrido[3,4-d]pyrimidine]
Fc1ccc(CN2CCc3nc(N4CCN(C5CCC5)CC4)ncc3C2)cc1 [Compound 613, 2-(4-cyclobutylpiperazin-1-yl)-6-(4-fluorobenzyl)-5,6,7,8-tetrahydropyrido[4,3-d]pyrimidine]
Cn1ccnc1CN1CCc2nc(N3CCN(C4CCC4)CC3)ncc2C1 [Compound 616, 2-(4-cyclobutylpiperazin-1-yl)-6-[(1-methyl-1H-imidazol-2-yl)methyl]-5,6,7,8-tetrahydropyrido[4,3-d]pyrimidine]
CC(c1ccccc1Cl)N1CCc2c(ncnc2N2CCN(C3CCC3)CC2)C1 (stereo not shown) [Compound 135, 7-[1-(2-chlorophenyl)ethyl]-4-(4-cyclobutylpiperazin-1-yl)-5,6,7,8-tetrahydropyrido[3,4-d]pyrimidine]
O=C(c1ccoc1)N1CCc2c(ncnc2N2CCN(C3CCC3)CC2)C1 [Compound 33, 4-(4-cyclobutylpiperazin-1-yl)-7-(3-furoyl)-5,6,7,8-tetrahydropyrido[3,4-d]pyrimidine]
c1nc2c(c(N3CCN(C4CCC4)CC3)n1)CCN(Cc1ccc(N3CCCC3)cc1)C2 [Compound 100, 4-(4-cyclobutylpiperazin-1-yl)-7-(4-pyrrolidin-1-ylbenzyl)-5,6,7,8-tetrahydropyrido[3,4-d]pyrimidine]
CC(C)c1ccc(CN2CCc3nc(N4CCN(C5CCC5)CC4)ncc3C2)cc1 [Compound 625, 2-(4-cyclobutylpiperazin-1-yl)-6-(4-isopropylbenzyl)-5,6,7,8-tetrahydropyrido[4,3-d]pyrimidine]
c1ccc(CN2CCc3c(ncnc3N3CCN(C4CCCC4)CC3)C2)cc1 [Compound 16, 7-benzyl-4-(4-cyclopentylpiperazin-1-yl)-5,6,7,8-tetrahydropyrido[3,4-d]pyrimidine]
